Experimental data reported in the NIST ThermoML archive (doi:10.1016/j.jct.2014.07.023).
“And” between values parts separate entries of the source, which are not always exact repeats. Identical values can stand only once. ± gives the expanded uncertainty stated by the source.

Tests used:
[1] = molar heat capacity at constant pressure; details: 101.33 kPa, Liquid, Small sample (50 mg) DSC
[2] = molar heat capacity at constant pressure; xn = mol fraction of the nth substance listed; details: 100 kPa, Liquid, Small sample (50 mg) DSC, x2 = 0

Structure (SMILES) | molar heat capacity at constant pressure ([1]; 293.15 K) [J/K/mol] | molar heat capacity at constant pressure ([1]; 298.15 K) | molar heat capacity at constant pressure ([1]; 303.15 K) [J/K/mol] | molar heat capacity at constant pressure ([1]; 308.15 K) [J/K/mol] | molar heat capacity at constant pressure ([1]; 313.15 K) [J/K/mol] | molar heat capacity at constant pressure ([1]; 318.15 K) [J/K/mol] | molar heat capacity at constant pressure ([1]; 323.15 K) [J/K/mol] | molar heat capacity at constant pressure ([2]; 293.15 K) [J/K/mol] | molar heat capacity at constant pressure ([2]; 298.15 K) [J/K/mol] | molar heat capacity at constant pressure ([2]; 303.15 K) [J/K/mol] | molar heat capacity at constant pressure ([2]; 308.15 K) [J/K/mol] | molar heat capacity at constant pressure ([2]; 313.15 K) [J/K/mol] | molar heat capacity at constant pressure ([2]; 318.15 K) [J/K/mol] | molar heat capacity at constant pressure ([2]; 323.15 K) [J/K/mol]
OCCCCO [1,4-butanediol] | 201.15 ± 8.6 | 203.79 ± 8.7 J/K/mol and 203.76 ± 8.7 J/K/mol | 206.56 ± 8.7 | 209.44 ± 8.9 | 212.33 ± 9 | 215.39 ± 9.1 | 218.54 ± 9.3 | – | – | – | – | – | – | –
CO [methanol] + OCCCCO | – | – | – | – | – | – | – | 80.46 ± 3.4 | 81.39 ± 3.5 | 82.38 ± 3.5 | 83.44 ± 3.5 | 84.56 ± 3.6 | 85.78 ± 3.7 | 87.03 ± 3.7
CC(O)CCO (stereo not drawn) [1,3-butanediol] | 215.84 ± 9.2 | 218.89 ± 9.3 J/K/mol and 218.9 ± 9.3 J/K/mol | 222.06 ± 9.5 | 225.21 ± 9.6 | 228.37 ± 9.7 | 231.61 ± 9.8 | 234.86 ± 10 | – | – | – | – | – | – | –
CO [methanol] + CCC(O)CO | – | – | – | – | – | – | – | 80.46 ± 3.4 | 81.39 ± 3.5 | 82.38 ± 3.5 | 83.44 ± 3.5 | 84.56 ± 3.6 | 85.78 ± 3.7 | 87.03 ± 3.7
CO [methanol] + CC(O)C(C)O | – | – | – | – | – | – | – | 80.46 ± 3.4 | 81.39 ± 3.5 | 82.38 ± 3.5 | 83.44 ± 3.5 | 84.56 ± 3.6 | 85.78 ± 3.7 | 87.03 ± 3.7
CCC(O)CO (stereo not drawn) [1,2-butanediol] | 228.1 ± 9.6 | 230.82 ± 9.8 J/K/mol and 230.8 ± 9.8 J/K/mol | 233.5 ± 9.9 | 236.21 ± 10 | 238.91 ± 10 | 241.52 ± 10 | 244.23 ± 10 | – | – | – | – | – | – | –
CC(O)C(C)O (stereo not drawn) [2,3-butanediol] | 233.95 ± 9.9 | 236.66 ± 10 J/K/mol and 236.63 ± 10 J/K/mol | 239.36 ± 10 | 242.07 ± 10 | 244.77 ± 10 | 247.47 ± 11 | 250.18 ± 11 | – | – | – | – | – | – | –
CO [methanol] | 80.46 ± 3.4 | 81.38 ± 3.5 J/K/mol and 81.39 ± 3.5 J/K/mol | 82.38 ± 3.5 | 83.44 ± 3.5 | 84.56 ± 3.6 | 85.78 ± 3.7 | 87.03 ± 3.7 | – | – | – | – | – | – | –
CO [methanol] + CC(O)CCO | – | – | – | – | – | – | – | 80.46 ± 3.4 | 81.39 ± 3.5 | 82.38 ± 3.5 | 83.44 ± 3.5 | 84.56 ± 3.6 | 85.78 ± 3.7 | 87.03 ± 3.7
